How the values were obtained:
Assay type in all cases: cell-based
human TLR7 = target: T1, human TLR7 (Homo sapiens, UniProt Q9NYK1); experiment: TLR7 inhibition reporter assay (HEK-Blue cells, SEAP reporter, gardiquimod stimulation); conditions: HEK-Blue cells overexpressing human TLR7, SEAP reporter, gardiquimod 7.5 μM; read-out: TLR7 IC50
T1 construct: host or cells: HEK-Blue cells
T1 sequence (Q9NYK1 27-1049): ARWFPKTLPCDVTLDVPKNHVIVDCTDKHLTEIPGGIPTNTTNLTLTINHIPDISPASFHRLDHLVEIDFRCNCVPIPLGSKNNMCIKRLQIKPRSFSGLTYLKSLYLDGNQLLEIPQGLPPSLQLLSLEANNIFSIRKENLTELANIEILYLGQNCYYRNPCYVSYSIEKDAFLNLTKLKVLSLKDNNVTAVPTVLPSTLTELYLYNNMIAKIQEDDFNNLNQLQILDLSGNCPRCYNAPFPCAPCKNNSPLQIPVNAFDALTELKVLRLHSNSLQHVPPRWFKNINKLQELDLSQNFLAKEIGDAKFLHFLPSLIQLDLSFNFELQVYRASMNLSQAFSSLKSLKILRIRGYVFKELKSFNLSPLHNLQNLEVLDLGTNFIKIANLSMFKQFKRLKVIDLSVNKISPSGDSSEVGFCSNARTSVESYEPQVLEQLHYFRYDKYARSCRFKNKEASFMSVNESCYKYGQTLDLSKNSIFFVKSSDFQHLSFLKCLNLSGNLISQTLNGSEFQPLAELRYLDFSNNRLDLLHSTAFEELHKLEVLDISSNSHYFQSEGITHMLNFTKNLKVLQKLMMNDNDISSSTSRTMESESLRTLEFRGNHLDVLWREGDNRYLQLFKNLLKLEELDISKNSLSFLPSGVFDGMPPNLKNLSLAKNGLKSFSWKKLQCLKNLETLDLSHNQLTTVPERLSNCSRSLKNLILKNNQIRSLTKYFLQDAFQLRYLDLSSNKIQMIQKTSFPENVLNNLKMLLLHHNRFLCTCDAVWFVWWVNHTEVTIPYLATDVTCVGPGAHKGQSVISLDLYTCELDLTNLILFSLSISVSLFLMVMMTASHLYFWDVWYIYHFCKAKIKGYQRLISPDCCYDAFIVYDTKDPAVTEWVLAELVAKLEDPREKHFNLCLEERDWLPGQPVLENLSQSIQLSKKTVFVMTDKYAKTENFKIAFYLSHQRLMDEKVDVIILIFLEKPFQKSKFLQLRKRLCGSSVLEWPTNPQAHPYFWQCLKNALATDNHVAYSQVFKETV
How it was run: (§1)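 Human TLR7/8/9 HEK-Blue reporter lines; dose range 0.05 nM–50 μM; 30 min RT preincubation; stimulus gardiquimod 7.5 μM / R848 15.9 μM / ODN2006 5 nM respectively; 22 h, 37 °C; SEAP detected colorimetrically.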

human TLR8 = target: T2, human TLR8 (Homo sapiens, UniProt Q9NR97); experiment: TLR8 inhibition reporter assay (HEK-Blue cells, SEAP reporter, R848 stimulation); conditions: HEK-Blue cells overexpressing human TLR8, SEAP reporter, R848 15.9 μM; read-out: TLR8 IC50
T2 construct: host or cells: HEK-Blue cells
T2 sequence (Q9NR97 27-1041): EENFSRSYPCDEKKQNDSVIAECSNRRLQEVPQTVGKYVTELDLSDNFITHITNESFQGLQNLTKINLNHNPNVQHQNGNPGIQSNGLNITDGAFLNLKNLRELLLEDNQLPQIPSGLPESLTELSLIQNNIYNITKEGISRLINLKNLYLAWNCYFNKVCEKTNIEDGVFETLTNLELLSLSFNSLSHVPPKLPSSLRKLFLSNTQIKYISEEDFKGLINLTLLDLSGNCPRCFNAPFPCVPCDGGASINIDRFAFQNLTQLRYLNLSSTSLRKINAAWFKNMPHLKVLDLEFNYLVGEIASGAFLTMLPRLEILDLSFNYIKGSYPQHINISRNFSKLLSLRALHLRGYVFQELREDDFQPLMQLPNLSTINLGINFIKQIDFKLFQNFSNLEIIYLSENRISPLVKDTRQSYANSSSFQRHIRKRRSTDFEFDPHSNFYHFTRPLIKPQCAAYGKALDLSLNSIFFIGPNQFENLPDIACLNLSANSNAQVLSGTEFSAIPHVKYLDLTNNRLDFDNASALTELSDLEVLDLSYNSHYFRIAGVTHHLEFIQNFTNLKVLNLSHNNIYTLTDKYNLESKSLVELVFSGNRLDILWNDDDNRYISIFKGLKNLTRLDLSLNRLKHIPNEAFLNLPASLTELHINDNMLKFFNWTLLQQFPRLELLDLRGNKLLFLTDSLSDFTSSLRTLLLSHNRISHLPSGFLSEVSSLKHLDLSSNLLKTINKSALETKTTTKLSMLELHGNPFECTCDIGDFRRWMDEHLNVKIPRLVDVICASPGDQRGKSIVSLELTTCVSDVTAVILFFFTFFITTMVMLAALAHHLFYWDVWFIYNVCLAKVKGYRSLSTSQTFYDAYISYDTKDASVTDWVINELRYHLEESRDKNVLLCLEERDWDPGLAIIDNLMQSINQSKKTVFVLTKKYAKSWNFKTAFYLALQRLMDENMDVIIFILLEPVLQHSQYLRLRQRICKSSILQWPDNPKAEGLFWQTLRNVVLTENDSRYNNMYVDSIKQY
How it was run: as §1

human TLR9 = target: T3, human TLR9 (Homo sapiens, UniProt Q9NR96); experiment: TLR9 inhibition reporter assay (HEK-Blue cells, SEAP reporter, ODN2006 stimulation); conditions: HEK-Blue cells overexpressing human TLR9, SEAP reporter, ODN2006 5 nM
T3 construct: host or cells: HEK-Blue cells
T3 sequence (Q9NR96 26-1032): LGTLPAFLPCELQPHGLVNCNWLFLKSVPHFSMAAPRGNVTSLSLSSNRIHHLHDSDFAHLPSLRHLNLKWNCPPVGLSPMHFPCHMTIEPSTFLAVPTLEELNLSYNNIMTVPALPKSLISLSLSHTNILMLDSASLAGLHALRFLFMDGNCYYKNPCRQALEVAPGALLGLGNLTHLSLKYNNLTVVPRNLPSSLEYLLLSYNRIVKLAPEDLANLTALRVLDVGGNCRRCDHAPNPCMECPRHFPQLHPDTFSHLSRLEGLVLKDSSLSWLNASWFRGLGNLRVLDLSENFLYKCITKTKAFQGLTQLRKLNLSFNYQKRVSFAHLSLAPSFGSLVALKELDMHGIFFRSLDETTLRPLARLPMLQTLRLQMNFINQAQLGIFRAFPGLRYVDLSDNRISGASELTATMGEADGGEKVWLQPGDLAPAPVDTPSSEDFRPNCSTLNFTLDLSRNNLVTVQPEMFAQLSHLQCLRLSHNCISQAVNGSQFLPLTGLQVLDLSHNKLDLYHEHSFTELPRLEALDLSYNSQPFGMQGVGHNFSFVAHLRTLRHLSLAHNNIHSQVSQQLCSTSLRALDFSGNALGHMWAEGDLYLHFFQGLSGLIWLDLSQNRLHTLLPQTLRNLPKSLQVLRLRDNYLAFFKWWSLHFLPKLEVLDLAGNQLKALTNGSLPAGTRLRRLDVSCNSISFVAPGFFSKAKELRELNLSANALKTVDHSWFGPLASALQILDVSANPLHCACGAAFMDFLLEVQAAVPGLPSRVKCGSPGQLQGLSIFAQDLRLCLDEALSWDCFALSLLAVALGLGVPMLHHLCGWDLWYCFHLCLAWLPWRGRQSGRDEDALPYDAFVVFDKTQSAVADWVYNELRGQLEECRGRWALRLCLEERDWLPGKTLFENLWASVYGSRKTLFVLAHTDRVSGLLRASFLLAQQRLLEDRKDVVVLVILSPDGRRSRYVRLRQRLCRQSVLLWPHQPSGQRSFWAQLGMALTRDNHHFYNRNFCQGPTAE
How it was run: as §1

Row | IC50 (human TLR7) | IC50 (human TLR8) | IC50 (human TLR9) | SMILES
1 | 12.4 nM | 1.38 nM | 6440 nM | Cc1c(-c2[nH]c3sc(C(=O)NCCN4CCCC4)nc3c2C(C)C)cn2ncnc2c1C [Example 370, 5-(7,8-dimethyl-[1,2,4]triazolo[1,5-a]pyridin-6-yl)-6-isopropyl-N-(2-(pyrrolidin-1-yl)ethyl)-4H-pyrrolo[3,2-d]thiazole-2-carboxamide]
2 | 10.7 nM | 2.49 nM | 8880 nM | Cc1c(-c2[nH]c3sc(C(=O)NCCN(C)C)nc3c2C(C)C)cn2ncnc2c1C [Example 372, 5-(7,8-dimethyl-[1,2,4]triazolo[1,5-a]pyridin-6-yl)-N-(2-(dimethylamino)ethyl)-6-isopropyl-4H-pyrrolo[3,2-d]thiazole-2-carboxamide]
3 | 81.9 nM | 34.5 nM | 42100 nM | Cc1c(-c2[nH]c3sc(C(=O)N4CCS(=O)(=O)CC4)nc3c2C(C)C)cn2ncnc2c1C [Example 373, (5-(7,8-dimethyl-[1,2,4]triazolo[1,5-a]pyridin-6-yl)-6-isopropyl-4H-pyrrolo[3,2-d]thiazol-2-yl)(1,1-dioxidothiomorpholino)methanone]
4 | 11.7 nM | 9.33 nM | 41500 nM | Cc1c(-c2[nH]c3sc(C(=O)NCC(C)(C)N4CCOCC4)nc3c2C(C)C)cn2ncnc2c1C [Example 374, 5-(7,8-dimethyl-[1,2,4]triazolo[1,5-a]pyridin-6-yl)-6-isopropyl-N-(2-methyl-2-morpholinopropyl)-4H-pyrrolo[3,2-d]thiazole-2-carboxamide]
5 | 19.9 nM | 8.4 nM | 35600 nM | CC(=O)N1CCN(C(=O)c2nc3c(C(C)C)c(-c4cn5ncnc5c(C)c4C)[nH]c3s2)CC1 [Example 375, 1-(4-(5-(7,8-dimethyl-[1,2,4]triazolo[1,5-a]pyridin-6-yl)-6-isopropyl-4H-pyrrolo[3,2-d]thiazole-2-carbonyl)piperazin-1-yl)ethan-1-one]
6 | 4.54 nM | 2.8 nM | 6300 nM | Cc1c(-c2[nH]c3sc(C(=O)N4CCC(N(C)C)CC4)nc3c2C(C)C)cn2ncnc2c1C [Example 376, (5-(7,8-dimethyl-[1,2,4]triazolo[1,5-a]pyridin-6-yl)-6-isopropyl-4H-pyrrolo[3,2-d]thiazol-2-yl)(4-(dimethylamino)piperidin-1-yl)methanone]
7 | 55.7 nM | 22.9 nM | 28000 nM | Cc1c(-c2[nH]c3sc(C(=O)N4CC(F)C4)nc3c2C(C)C)cn2ncnc2c1C [Example 379, (5-(7,8-dimethyl-[1,2,4]triazolo[1,5-a]pyridin-6-yl)-6-isopropyl-4H-pyrrolo[3,2-d]thiazol-2-yl) (3-fluoroazetidin-1-yl)methanone]
8 | 11.5 nM | 5.07 nM | 6520 nM | Cc1c(-c2[nH]c3sc(C(=O)N4CCN(C(C)C)CC4)nc3c2C(C)C)cn2ncnc2c1C [Example 380, (5-(7,8-dimethyl-[1,2,4]triazolo[1,5-a]pyridin-6-yl)-6-isopropyl-4H-pyrrolo[3,2-d]thiazol-2-yl)(4-isopropylpiperazin-1-yl)methanone]
9 | 11.1 nM | 9.06 nM | 5880 nM | Cc1c(-c2[nH]c3sc(C(=O)NCCC4CCN(C)CC4)nc3c2C(C)C)cn2ncnc2c1C [Example 381, 5-(7,8-dimethyl-[1,2,4]triazolo[1,5-a]pyridin-6-yl)-6-isopropyl-N-(2-(1-methylpiperidin-4-yl)ethyl)-4H-pyrrolo[3,2-d]thiazole-2-carboxamide]
10 | 2.32 nM | 2.33 nM | 9860 nM | Cc1c(-c2[nH]c3sc(C(=O)N(C)CCN(C)C)nc3c2C(C)C)cn2ncnc2c1C [Example 382, 5-(7,8-dimethyl-[1,2,4]triazolo[1,5-a]pyridin-6-yl)-N-(2-(dimethylamino)ethyl)-6-isopropyl-N-methyl-4H-pyrrolo[3,2-d]thiazole-2-carboxamide]
11 | 17.5 nM | 3.51 nM | 47000 nM | Cc1c(-c2[nH]c3sc(C(=O)N4CC(N(C)C)C4)nc3c2C(C)C)cn2ncnc2c1C [Example 383, (5-(7,8-dimethyl-[1,2,4]triazolo[1,5-a]pyridin-6-yl)-6-isopropyl-4H-pyrrolo[3,2-d]thiazol-2-yl) (3-(dimethylamino)azetidin-1-yl)methanone]
12 | 10.3 nM | 3.56 nM | 9560 nM | Cc1c(-c2[nH]c3sc(C(=O)NCC4CNCCO4)nc3c2C(C)C)cn2ncnc2c1C (stereo not drawn) [Example 386, 5-(7,8-dimethyl-[1,2,4]triazolo[1,5-a]pyridin-6-yl)-6-isopropyl-N-(morpholin-2-ylmethyl)-4H-pyrrolo[3,2-d]thiazole-2-carboxamide]
13 | 25.2 nM | 43.9 nM | 11500 nM | COc1cc(-c2[nH]c3sc(C(=O)NCCN4CCCC4)nc3c2C(C)C)cn2ncnc12 [Example 387, 6-isopropyl-5-(8-methoxy-[1,2,4]triazolo[1,5-a]pyridin-6-yl)-N-(2-(pyrrolidin-1-yl)ethyl)-4H-pyrrolo[3,2-d]thiazole-2-carboxamide]
